Calls of active or inactive are those of the source.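 Rule for the calls: active = compounds whose IC50 against parasite growth in infected mouse cells is below 50000 nM; inactive = the rest.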
Test system: T. cruzi Tulahuen in NIH-3T3, beta-gal fluorescence, 4 d
Experiment: anti-Chagas amastigote proliferation inhibitors – cell-based (AID 1159559)

SMILES	IC50
CNS(=O)(=O)c1ccccc1Nc1nc(Nc2cc(C)nn2C)ncc1Cl	400 nM
CCN(CC)S(=O)(=O)c1ccc(OC)c(NC(=O)c2ccc([N+](=O)[O-])s2)c1	250 nM
COc1cccc(S(=O)(=O)Nc2ccc3c(c2)CC(N2CCC(NC(=O)C4CC4)CC2)C3)c1 (stereo not drawn)	40000 nM
Cc1[nH]n2c(=O)c3c(nc2c1-c1ccc(F)cc1)CCCC3	1600 nM
O=C(CSc1nnc2ccc(-c3ccc(F)cc3)nn12)N1CCCCC1	2500 nM
COc1ccc(NS(=O)(=O)c2cccc(NC(=O)c3cc(F)cc(F)c3)c2)cc1	790 nM
O=C(NCc1ccncc1)c1ccccc1N1CCCN(C(=O)Cc2ccc(F)c(F)c2)CC1	130 nM
Cc1sc(C)c(C(F)(F)F)c1CNCCCNc1cc(=O)c2ccccc2[nH]1	790 nM
CN(C)c1ncc(-c2cncn2CCOc2ccc(Cl)cc2)cn1	200 nM
CC(=O)Nc1nc(-c2cc(C)ccc2C)c(C)s1	200 nM
Cc1nnnn1-c1cccc(C(=O)N2CCC[C@@]3(C)c4ncncc4CCC23)c1 (stereo partly drawn)	630 nM
O=[N+]([O-])c1cccc(Nc2cncc(-c3ccccc3CO)c2)c1	320 nM
CC(c1cc(Cl)cc(Cl)c1)N(C)c1ncc2c(N)nc(N)nc2n1 (stereo not drawn)	63 nM
O=C(NC1C(=O)N(c2ccccc2)C1c1cccnc1)c1ccc(Cl)s1 (stereo not drawn)	32 nM
O=C(Nc1ccc(-c2nc3ccccc3c(=O)[nH]2)cc1)c1cccs1	3200 nM
CC(C(=O)Nc1ccc(Br)cc1)N1CCN(c2ccc([N+](=O)[O-])cc2)CC1 (stereo not drawn)	2500 nM
O=C(CSc1ccc(-c2ccccn2)nn1)Nc1ccc(Cl)cc1	2500 nM
Cc1ccc(CNC2CCN(C[C@@H]3Cn4c(=O)ccc5ccc(=O)n3c54)CC2)cc1F	1300 nM
COc1ccc(-c2csc(NC(=O)c3ccc([N+](=O)[O-])s3)n2)cc1	160 nM
COc1ccc([N+](=O)[O-])cc1NC(=O)Nc1cccc(Cl)c1	790 nM
N#Cc1ccc(C(=O)Nc2cccc(-c3cccc(CN4CCC(O)CC4)c3)c2)cc1	5000 nM
CC(=O)Nc1ccc(-c2csc(NC(=O)c3ccc([N+](=O)[O-])s3)n2)cc1	130 nM

SMILES	IC50
COc1ccc(-c2cnc(NC(=O)c3ccc(F)cc3)n2C)cc1	2500 nM
O=C(NCCc1cccnc1)c1csc(-c2ccccc2)n1	250 nM
COc1cc(C2SCC(=O)Nc3c2c(C)nn3-c2nc3ccccc3s2)cc(OC)c1O (stereo not drawn)	> 50000 nM (inactive)
CCCCN(C(=O)c1ccc(NC(=O)C(C)C)cc1)c1ccccc1	20000 nM
O=C(Nc1n[nH]c(-c2ccccn2)n1)C1CC1c1ccccc1 (stereo not drawn)	16000 nM
O=C1CCCCCC1(Cc1cnc[nH]1)c1ccc(Cl)cc1Cl (stereo not drawn)	250 nM
Cc1[nH]nc(Nc2ccnc3[nH]ccc23)c1C	4000 nM
COc1cccc(NS(=O)(=O)c2ccc3[nH]cc(C(=O)NCCC(C)C)c(=O)c3c2)c1	> 50000 nM (inactive)
CCOC(=O)c1cn[nH]c1S(=O)(=O)N1CCC1c1ccccc1 (stereo not drawn)	> 50000 nM (inactive)
COCCn1cnc2cc(NC(=O)C3CCCCC3)cc(C(=O)N3CCc4sccc4C3)c21	20000 nM
O=C(COc1nn(-c2ccccc2)c2ncccc12)NCc1ccccc1	13000 nM
N#Cc1ccccc1S(=O)(=O)N1CCN(C(=O)CNC(=O)c2ccc3c(c2)OCO3)CC1	16000 nM
N#Cc1cccc(CN2CCC(c3nc(-c4ccc(C(F)(F)F)nc4)no3)CC2)c1	2000 nM
Nc1nc(-c2ccccn2)nc(N)c1Cc1c(F)cccc1Cl	1600 nM
O=C(c1cccc(Nc2ncc(-c3ccc4c(c3)OCO4)cn2)c1)N1CCSC1	2500 nM
COc1ccc(S(=O)(=O)Nc2ccc(CN3CCN(C(=O)c4cccc(C#N)c4)CC3)cc2)cc1	1000 nM
COc1ccnc2[nH]cc(-c3cc(C(=O)N[C@H](CO)c4ccccc4)co3)c12	1300 nM
O=C1CN(C(=O)c2cccc(Nc3ncc(-c4ccc5c(c4)OCO5)cn3)c2)CCN1	1600 nM
CS(=O)(=O)c1cccc(-c2cnc(N)c3c(-c4ccc(CO)cc4)csc23)c1	790 nM
O=C(NCCc1ccccn1)C(c1cn[nH]c1)N1CCN(c2ccc(Cl)c(Cl)c2)CC1 (stereo not drawn)	100 nM
O=C1NCCn2ccc(Nc3nc(NC4CCC(O)CC4)ncc3Cl)c21 (stereo not drawn)	6300 nM
Cc1cc2ncn(-c3ccc([N+](=O)[O-])cc3C#N)c2cc1C	1300 nM

SMILES	IC50
COc1ccc(-c2csc(NC(=O)c3ccc([N+](=O)[O-])s3)n2)cc1OC	100 nM
C[C@@H](Oc1cc(-n2cnc3ccc(CC(O)CO)cc32)sc1C(N)=O)c1ccccc1Cl (stereo partly drawn)	3200 nM
Cc1cc(NC(=O)CC2CCCCC2)n(-c2nc3c(c(=O)[nH]2)CCC3)n1	250 nM
N#Cc1ccc(S(=O)(=O)N2CCN(Cc3cccc(-c4ccncc4)c3)CC2)cc1	400 nM
Cc1ccc(-c2csc(NC(=O)C=Cc3ccc(S(=O)(=O)N4CCOCC4)cc3)n2)o1	7900 nM
NC(=O)c1ccsc1NC(=O)c1ccc([N+](=O)[O-])s1	79 nM
COCc1cnc2c(c1SCc1c(F)cccc1Cl)c(=O)n(C)c(=O)n2C	> 50000 nM (inactive)
Cc1[nH]c2ccccc2c(=O)c1Cc1c(C)[nH]c2ccccc2c1=O	2500 nM
Cc1nn(-c2nc(N)nc(-c3ccccn3)n2)c(N)c1-c1ccccc1	4000 nM
O=c1cc(CSc2ccc(Cl)cc2)nc(-c2ccccn2)[nH]1	1000 nM
Cn1cncc1CN1CCC2(CC1)COC(Cc1ccccc1)C2 (stereo not drawn)	320 nM
Cc1ccc(S(C)(=O)=O)cc1Nc1nccc(-c2sc(N)nc2-c2ccccc2)n1	130 nM
Cc1cc(Nc2cc(C3CC3)[nH]n2)nc(N2CCC[C@H]2C(N)=O)n1	130 nM
O=C(Nc1ccc(C(F)(F)F)cc1)Nc1cccc([N+](=O)[O-])c1	1000 nM
O=C(Cc1ccc2c(c1)CCC2)Nc1n[nH]c(-c2ccccn2)n1	10000 nM
COc1ccc(NS(=O)(=O)c2cc(NC(=O)c3ccc([N+](=O)[O-])s3)ccc2OC)cc1	63 nM
NC(=O)c1ncc(N[C@@H]2CCCNC2)nc1Nc1cccc(Cl)c1	320 nM
Cc1cccnc1CN1CCN(CCCOc2ccc(-c3ccc(C(N)=O)cc3)cc2)CC1	630 nM
O=C(NCCNc1noc(-c2ccc([N+](=O)[O-])cc2)n1)c1ccc(Cl)cc1	2000 nM
CCOc1ccc(NC(=O)C=Cc2ccc(CC)o2)cc1	2000 nM
Cc1c([N+](=O)[O-])c(C(=O)Nc2sc3c(c2C#N)CCC(C)C3)nn1C (stereo not drawn)	2500 nM
CS(=O)(=O)c1ccccc1C(=O)N(Cc1ccccc1)c1ccccc1	50000 nM

SMILES	IC50
O=C(NCCc1csc(-c2ccc(F)cc2)n1)c1cccs1	400 nM
Clc1ccc(OCCN2CCCCC2c2cccnc2)c(Cl)c1 (stereo not drawn)	400 nM
CCCCc1cc(Nc2cc(C3CCC3)[nH]n2)nc(N2CCC2C(N)=O)n1 (stereo not drawn)	3200 nM
CCc1cccc(-n2nc(OCC(=O)NC3CCCC3)c3cccnc32)c1	> 50000 nM (inactive)
CCOc1ccc2nc(NC(=O)c3ccc([N+](=O)[O-])s3)sc2c1	1600 nM
O=C(Nc1nc2ccccc2[nH]1)c1c(O)c2cccc3c2n(c1=O)CC3	20000 nM
O=C(CN(Cc1ccccn1)Cc1ccccn1)NCc1ccc2c(c1)OCO2	7900 nM
Clc1ccc(C(CC2CCCCO2)Cn2cncn2)c(Cl)c1 (stereo not drawn)	400 nM
O=C(c1cc2cc(Cl)ccc2[nH]1)N1CCCCC1c1cccnc1 (stereo not drawn)	250 nM
Nc1nccc(-c2csc(Nc3ccc(Cl)cc3)n2)n1	1300 nM
CC1(C)CCC(=Cc2ccc(Cl)cc2)CC1(O)Cn1ccnc1 (stereo not drawn)	6.3 nM
CCCc1nc2nc(N)nc(N)c2cc1CC	320 nM
CN(Cc1nc2c(C(=O)N3CCN(Cc4ccccc4)CC3)cccc2[nH]1)C1CCCc2cccnc21 (stereo not drawn)	790 nM
O=c1cc(NCCCNC2CCOc3c(I)cc(Cl)cc32)[nH]c2ccccc12 (stereo not drawn)	790 nM
COc1ccc(S(=O)(=O)Nc2ccc(C(=O)Nc3nc(-c4ccccn4)cs3)cc2)cc1	790 nM
O=C1COC(c2ccccc2)(c2ccccc2)CN1C1CCN(Cc2ccc(-n3ccnc3)cc2)CC1	1600 nM
COc1ccc(C(=O)Nc2cc(C(F)(F)F)ccc2N2CCOCC2)c(OC)c1	1000 nM
O=c1cc(NCCCNCc2c[nH]c3ccc(Br)cc23)[nH]c2ccccc12	> 50000 nM (inactive)
C=CCN(Cc1cccs1)C(=O)CSc1nnc(-c2ccc3c(c2)OCO3)o1	6300 nM
COc1ccc(NC(=O)c2ccc(NC(=O)CN(c3ccccc3C)S(C)(=O)=O)cc2)cc1	32000 nM
COc1ccccc1CNc1cc(C2CC2)nc(-c2nccn2C)n1	790 nM
COc1ccc2nc(N(Cc3cccnc3)C(=O)C3CCC3)sc2c1	130 nM

SMILES	IC50
COc1cccc(C(=O)[C@H]2C[C@@H]2CN(Cc2cccnc2)Cc2cccnc2)c1	100 nM
O=C(c1ccc(Cl)cc1)c1ccc(OC(=O)N2CCOCC2)cc1	13000 nM
c1cc(-c2ncc(-c3ccn[nH]3)s2)ccn1	160 nM
CN(C)c1ccc(N)cc1CN(CC1CCCO1)S(C)(=O)=O (stereo not drawn)	> 50000 nM (inactive)
Cc1ccc(NC(=O)c2ccnc(N3CCCC3)c2)cc1-c1cc(C(N)=O)ccc1C	6300 nM
CC1CN(S(=O)(=O)c2ccc(NC(=O)c3cc(C4CC4)nc4c3cnn4C(C)C)cc2)CC(C)O1 (stereo not drawn)	630 nM
CC(C)c1sc(Cl)nc1C(=O)NCCc1nc(C(=O)Nc2ccc3c(c2)OCO3)cs1	4000 nM
Cc1nc2c(-c3n[nH]c(-c4ccccc4N)n3)cccn2c1C	4000 nM
O=C(Nc1ccc(S(=O)(=O)N2CCCC2)cc1)c1ccc([N+](=O)[O-])s1	200 nM
Cc1c(Nc2cc(C3CC3)[nH]n2)ccc(C#N)c1Cl	2500 nM
N#Cc1cc([N+](=O)[O-])ccc1NC1CCCCCC1	2500 nM
CC(C)C[C@H](NC(=O)c1csc(-c2cccs2)n1)C(=O)NC1(C#N)CC1	25000 nM
COc1ccc(Cl)cc1CC(=O)Nc1n[nH]c(-c2ccccn2)n1	10000 nM
O=C(Cn1cnc2c(-c3ccccc3)csc2c1=O)N1CCCCC1	3200 nM
CNc1nc(C)nc(N2CCc3cc(C(=O)NCc4ccc(-c5nccn5C)cc4Cl)ccc32)n1	5000 nM
Cc1[nH]n2c(=O)c3c(nc2c1-c1ccc(Br)cc1)CCCC3	1000 nM
CC(C)Oc1cccc(N2CCC(C(=O)N3CCCN(C(C)C)CC3)CC2)c1	1300 nM
Cc1nc(C(=O)Nc2ccc3c(c2)OCO3)nn1-c1ccc(F)cc1	3200 nM
O=[N+]([O-])c1ccc(C2=CC(c3ccccc3)=NCCN2)cc1	500 nM
CCN(C)Cc1ccc(N2CCC(NS(=O)(=O)c3ccc4c(c3)CCO4)CC2)nc1	630 nM

Source: PubChem BioAssay AID1159559 (GlaxoSmithKline (GSK), 2015)
